# From publication PMC5107132 (European journal of pharmacology, 2016)
# Marks after values point to notes of the source that are not given here.
# Assays:
# Wistar rats [1] = assay: Rotarod test; assay type: in vivo, rat
# α2β3γ2S GABAA receptors = α2β3γ2S GABAA receptors (Rattus norvegicus, UniProt P18508+P23576); assay: 3H-flunitrazepam competition binding, α2β3γ2S
# α3β3γ2 GABAA receptors = α3β3γ2 GABAA receptors (Rattus norvegicus, UniProt P18508+P20236); assay: Two-electrode voltage clamp in Xenopus oocytes, α3β3γ2; assay type: cell-based
# α1β3γ2 GABAA receptors = α1β3γ2 GABAA receptors (Rattus norvegicus, UniProt P18508+P62813); assay: Two-electrode voltage clamp in Xenopus oocytes, α1β3γ2; assay type: cell-based; details: whole range of in vivo free brain concentrations obtained
# α2β3γ2 GABAA receptors = α2β3γ2 GABAA receptors (Rattus norvegicus, UniProt P18508+P23576); assay: Two-electrode voltage clamp in Xenopus oocytes, α2β3γ2; assay type: cell-based
# Wistar rats [2] = assay: Elevated plus maze; assay type: in vivo, rat; details: 1 mg/kg to 10 mg/kg i.p., 5 min
# Wistar rats [3] = assay: Amphetamine induced locomotor activity; assay type: in vivo, rat; details: 1, 2.5 and 10 mg/kg i.p.
# α5β3γ2S GABAA receptors = α5β3γ2S GABAA receptors (Rattus norvegicus, UniProt P18508+P19969); assay: 3H-flunitrazepam competition binding, α5β3γ2S
# Wistar rats [4] = assay: Intravenous pentylenetetrazole infusion test; assay type: in vivo, rat
# [5] = Plasma protein and brain tissue binding; assay type: in vitro ADME, rat; details: rat
# non-α5GABAARs = assay: Two-electrode voltage clamp in Xenopus oocytes, non-α5 receptors; assay type: cell-based, rat; details: 100 nM effective concentration
# [6] = Pharmacokinetic study, plasma and brain concentrations after i.p. injection
# α1β3γ2S GABAA receptors = α1β3γ2S GABAA receptors (Rattus norvegicus, UniProt P18508+P62813); assay: 3H-flunitrazepam competition binding, α1β3γ2S
# Wistar rats [7] = assay: Grip strength; assay type: in vivo, rat; details: for Grip strength, peak force of experimenter's pull necessary to overcome the animal's grip: 20 min before testing
# [8] = In vitro hydrolytic stability study in rat plasma; assay type: in vitro ADME; details: for Total plasma concentration (in vitro metabolic stability): rat plasma 37 °C
# [9] = system: 50 other receptor and enzyme assays; assay: NIMH PDSP screen, 50 other receptor and enzyme assays
# α5β3γ2 GABAA receptors = α5β3γ2 GABAA receptors (Rattus norvegicus, UniProt P18508+P19969); assay: Two-electrode voltage clamp in Xenopus oocytes, α5β3γ2; assay type: cell-based; details: concentrations approaching 100 nM; GABA EC3-5
# α3β3γ2S GABAA receptors = α3β3γ2S GABAA receptors (Rattus norvegicus, UniProt P18508+P20236); assay: 3H-flunitrazepam competition binding, α3β3γ2S
# [10] = only at concentrations of about 100 nM and above
# [11] = rat i.p., MP-III-022 2.5 mg/kg vs SH-053-2′F-R-CH3 10 mg/kg
structure (smiles),measurement,setting,value
"C#Cc1ccc2c(c1)C(c1ccccc1F)=N[C@H](C)c1c(C(=O)NC)ncn1-2 [MP-III-022, (R)-8-Ethynyl-6-(2-fluorophenyl)-N,4-dimethyl-4H-benzo[f]imidazo[1,5-a][1,4]diazepine-3-carboxamide]","Rotarod, time remaining on the rod revolving at 15 rpm",Wistar rats [1]; 10 mg/kg i.p.,180 s
same,"Rotarod, time remaining on the rod revolving at 15 rpm","Wistar rats [1]; 15 mg/kg MP-III-022 in combination with 20 mg/kg XLi-093, i.p.",74.61 ± 34.03 s
same,"Rotarod, time remaining on the rod revolving at 15 rpm",Wistar rats [1]; 15 mg/kg i.p.,69.09 ± 25.58 s
same,"Rotarod, time remaining on the rod revolving at 15 rpm",Wistar rats [1]; 20 mg/kg i.p.,6.67 ± 4.81 s
same,Ki,α2β3γ2S GABAA receptors,360 ± 56 nM
same,Estimated free concentration as % of Ki value for α2GABAARs,α2β3γ2S GABAA receptors; after the dose of 10 mg/kg,19%
same,Estimated potentiation at α3GABAARs,α3β3γ2 GABAA receptors; after the 15 mg/kg dose,175%
same,Estimated potentiation at α3GABAARs,α3β3γ2 GABAA receptors; after the 20 mg/kg dose,200%
same,Modulatory activity at α3-containing receptors,α3β3γ2 GABAA receptors; [10],weakly modulatory
same,Modulatory actions at α1-containing GABAA receptors,α1β3γ2 GABAA receptors,lacked modulatory actions
same,Estimated potentiation at α2GABAARs,α2β3γ2 GABAA receptors; after the 15 mg/kg dose,225%
same,Estimated potentiation at α2GABAARs,α2β3γ2 GABAA receptors; after the 20 mg/kg dose,280%
same,Estimated potentiation at α2GABAARs,α2β3γ2 GABAA receptors; after the dose of 10 mg/kg,138%
same,Modulatory activity at α2-containing receptors,α2β3γ2 GABAA receptors; [10],weakly modulatory
same,"Elevated plus maze, closed and total arm entries",Wistar rats [2],did not affect
same,"Elevated plus maze, percent of open arm entries",Wistar rats [2],did not affect
same,"Elevated plus maze, percent of open arm time",Wistar rats [2],did not affect
same,"Elevated plus maze, total distance traveled",Wistar rats [2],did not affect
same,Locomotor activity during 20 min before amphetamine treatment,Wistar rats [3],did not show any effect of treatment
same,"Influence on amphetamine's effects (hyperlocomotion, 0.5 mg/kg amphetamine)",Wistar rats [3]; 60 min,lack of influence
same,Ki,α5β3γ2S GABAA receptors,55 ± 17 nM
same,Selectivity in binding to α5GABAARs compared to α1-containing GABAA receptors,α5β3γ2S GABAA receptors; ratio of Ki values,15 fold
same,Selectivity in binding to α5GABAARs compared to α2-containing GABAA receptors,α5β3γ2S GABAA receptors; ratio of Ki values,6 fold
same,Selectivity in binding to α5GABAARs compared to α3-containing GABAA receptors,α5β3γ2S GABAA receptors; ratio of Ki values,12 fold
same,"PTZ test, threshold dose of PTZ required to elicit seizures",Wistar rats [4]; 1 mg/kg i.p.,60.99 ± 6.11 mg/kg PTZ
same,"PTZ test, threshold dose of PTZ required to elicit seizures",Wistar rats [4]; 10 mg/kg i.p.,50.99 ± 3.72 mg/kg PTZ
same,"PTZ test, effect of treatment (one-way ANOVA)",Wistar rats [4]; 1 and 10 mg/kg i.p.,did not show a statistically significant effect
same,fraction unbound,[5]; brain tissue,0.0661
same,fraction unbound,[5]; plasma,0.135
same,Effects (potentiation) on non-α5GABAARs,non-α5GABAARs,≤ 150%
same,Brain AUC (0 to 180 min) relative to SH-053-2′F-R-CH3,[6]; [11],1.75 fold
same,Plasma AUC (0 to 180 min) relative to SH-053-2′F-R-CH3,[6]; [11],2 fold
same,Brain free (estimated) concentration,"[6]; rat, 1 mg/kg i.p., 20 min",6.38 ± 0.80 nmol/kg
same,Brain free (estimated) concentration,"[6]; rat, 2.5 mg/kg i.p., 20 min",10.34 ± 3.33 nmol/kg
same,Brain total concentration,"[6]; rat, 2.5 mg/kg i.p., 20 min",156.46 ± 50.33 nmol/kg
same,Brain free (estimated) concentration,"[6]; rat, 10 mg/kg i.p., 20 min",68.12 ± 18.38 nmol/kg
same,Brain total concentration,"[6]; rat, 10 mg/kg i.p., 20 min",1030.52 ± 278.03 nmol/kg
same,Brain free (estimated) concentration,"[6]; rat, 15 mg/kg i.p., 20 min",317.57 ± 186.52 nmol/kg
same,Brain total concentration,"[6]; rat, 15 mg/kg i.p., 20 min",4804.44 ± 2821.77 nmol/kg
same,Brain free (estimated) concentration,"[6]; rat, 20 mg/kg i.p., 20 min",559.57 ± 58.58 nmol/kg
same,Brain total concentration,"[6]; rat, 20 mg/kg i.p., 20 min",8465.45 ± 886.18 nmol/kg
same,concentration at 20 min,"[6]; rat, plasma, ip, 1 mg/kg, Plasma total concentration, 1 mg/kg i.p., 20 min",62.4 ± 4.97 nM
same,Ki,α1β3γ2S GABAA receptors,850 ± 110 nM
same,"Grip strength, peak force of experimenter's pull necessary to overcome the animal's grip",Wistar rats [7]; 1 mg/kg i.p.,2.57 ± 0.08 kg/kg
same,"Grip strength, peak force of experimenter's pull necessary to overcome the animal's grip",Wistar rats [7]; 2.5 mg/kg i.p.,2.41 ± 0.28 kg/kg
same,"Grip strength, peak force of experimenter's pull necessary to overcome the animal's grip",Wistar rats [7]; 10 mg/kg i.p.,"1.94 ± 0.22^b,d kg/kg"
same,"Grip strength, peak force of experimenter's pull necessary to overcome the animal's grip",Wistar rats [7]; 15 mg/kg i.p.,1.86 ± 0.16^a kg/kg
same,"Grip strength, peak force of experimenter's pull necessary to overcome the animal's grip",Wistar rats [7]; 20 mg/kg i.p.,"1.78 ± 0.16^c,d kg/kg"
same,Dose at which the first muscle relaxant effect was observed,"Wistar rats [7]; i.p., grip strength",10 mg/kg
same,Total plasma concentration (in vitro metabolic stability),[8]; 0 min,0.5556 µM
same,Total plasma concentration (in vitro metabolic stability),[8]; 30 min,0.5402 ± 0.0146 µM
same,Total plasma concentration (in vitro metabolic stability),[8]; 60 min,0.5403 ± 0.0193 µM
same,Total plasma concentration (in vitro metabolic stability),[8]; 120 min,0.5472 ± 0.0007 µM
same,Total plasma concentration (in vitro metabolic stability),[8]; 240 min,0.5374 ± 0.0063 µM
same,In vitro metabolic stability during incubation in rat plasma,"[8]; rat, plasma",excellent in vitro metabolic stability
same,"remaining at 0 h, 0.2 μg/ml","[8]; rat, plasma",100%
same,"remaining at 0.5 h, 0.2 μg/ml","[8]; rat, plasma",97.2%
same,"remaining at 1 h, 0.2 μg/ml","[8]; rat, plasma",97.2%
same,"remaining at 2 h, 0.2 μg/ml","[8]; rat, plasma",98.5%
same,"remaining at 4 h, 0.2 μg/ml","[8]; rat, plasma",96.7%
same,Activity in 50 other receptor and enzyme assays,[9],negligible activity
same,Potentiation at α5β3γ2,α5β3γ2 GABAA receptors,above 300%
same,Ki,α3β3γ2S GABAA receptors,660 ± 170 nM
